From patent publication US12637473B2, “MDM2 protein degraders” (THE REGENTS OF THE UNIVERSITY OF MICHIGAN, priority 2016, dated 2026)
Entries after “also recorded” stand apart in the source; their conditions may differ.

How the values were obtained:
Format in all cases: cell-based
MV4-11 cell line = assay: CellTiter-Glo Luminescent Cell Viability Assay, cell growth inhibition; conditions: Homo sapiens, 96 h, 4 days
Summary of the method: (§1)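 Cells plated at 2,000/well with serially diluted compounds, incubated 4 days at 37° C, 5% CO2. Viability read by CellTiter-Glo luminescence after 10-20 min at room temperature; IC50 from dose-response fit.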

RS4; 11 cell line = assay: as above; conditions: Homo sapiens, 96 h, 4 days
Summary of the method: as §1

[1] = test system: p53 target genes: p21, PUMA and BAX; assay: Activation of p53 downstream target genes, quantitative real-time PCR; conditions: RS4, 11 cells, 10 nM; for mRNA levels of p21: FIG. 3; for mRNA levels of PUMA: FIG. 4; for mRNA levels of BAX: FIG. 5; for activation of p53 downstream target genes (mRNA levels of p21, PUMA, BAX): 3, 6, or 12 hours
Description: RS4; 11 cells were treated with Cpd. A (0.3 μM), Cpd. No. 15 (10 nM), and Cpd. No. 22 (10 nM) for 3, 6, or 12 hours, and then harvested and washed. Cellular mRNA samples were extracted from the cells and then subjected to Reverse Transcription and quantitative real-time PCR for the analysis of the mRNA levels of three representative p53 target genes: p21, that induces cell cycle arrest, and PUMA and BAX that leads to apoptosis. […] A, Cpd. No. 15, and Cpd. No. 22.

RS4; 11 cells = assay: Cell growth inhibition by WST assay with Cpd. C co-treatment (CRBN competition); design: LogIC50: unit not given here; conditions: for HillSlope / IC50 / LogIC50: 4 days; for shift of the dose response curves: co-treatment of Cpd. C (10, 20, or 30 μM)
Description: RS4; 11 cells were pre-incubated with different concentrations of Cpd. C to compete for the binding of phthalimide to CRBN, or DMSO, for 2 hours before adding Cpd. A, Cpd. No. 14, Cpd. No. 15, and Cpd. No. 22. The cells were then co-treated with 10, 20, or 30 μM Cpd. C and increasing concentrations of Cpd. A, Cpd. No. 14, Cpd. No. 15, and Cpd. No. 22 for 4 days, with a starting cell concentration of ˜15,000/well. Cell growth inhibition was determined by the WST assay. […] No. 14, Cpd. No. 15, and Cpd. No. 22 with co-treatment of Cpd. C. The structure of Cpd.

[2] = test system: RS4; 11 cells with stable shRNA knockdown of p53; assay: Cell growth inhibition by WST assay, p53 knockdown cells; design: LogIC50: unit not given here; conditions: RS4;11 sh p53, 4 days; for IC50: Homo sapiens, 96 h
Description: (§2) RS4; 11 cells with stable shRNA knockdown of p53 or those transfected shRNA control vector were treated with Cpd. A, Cpd. B, Cpd. No. 14, Cpd. No. 21, Cpd. No. 15, and Cpd. No. 22 for 4 days, with a cell concentration of ˜15,000/well. Cell growth inhibition was determined by WST assay. See Table 7 (p53) and Table 8 (control). Significant increases in IC50 of the Compounds of the Disclosure in the p53 knockdown RS4; 11 cells were observed compared with that in the sh control cells. […] The p53 knockdown efficiency was determined by western blot for p53 protein levels with or without treatment of Cpd. A (1 μM) for 2 hours.

[3] = test system: RS4; 11 cells transfected shRNA control vector; assay: Cell growth inhibition by WST assay, shRNA control cells; design: LogIC50: unit not given here; conditions: RS4;11 sh Control, 4 days; for IC50: Homo sapiens, 96 h
Description: as §2

MDM2 [4] = biological target: T1, MDM2 (Homo sapiens, UniProt Q00987); assay: MDM2 degradation and p53 activation, western blotting of cell lysates; design: endogenous in cells; conditions: for p53 activation: MV-4-11 cell line; for protein level of MDM2 (MDM2 degradation): MV-4-11 cells, 2 hours, compared to Cpd. A
T1 sequence (Q00987 whole entry): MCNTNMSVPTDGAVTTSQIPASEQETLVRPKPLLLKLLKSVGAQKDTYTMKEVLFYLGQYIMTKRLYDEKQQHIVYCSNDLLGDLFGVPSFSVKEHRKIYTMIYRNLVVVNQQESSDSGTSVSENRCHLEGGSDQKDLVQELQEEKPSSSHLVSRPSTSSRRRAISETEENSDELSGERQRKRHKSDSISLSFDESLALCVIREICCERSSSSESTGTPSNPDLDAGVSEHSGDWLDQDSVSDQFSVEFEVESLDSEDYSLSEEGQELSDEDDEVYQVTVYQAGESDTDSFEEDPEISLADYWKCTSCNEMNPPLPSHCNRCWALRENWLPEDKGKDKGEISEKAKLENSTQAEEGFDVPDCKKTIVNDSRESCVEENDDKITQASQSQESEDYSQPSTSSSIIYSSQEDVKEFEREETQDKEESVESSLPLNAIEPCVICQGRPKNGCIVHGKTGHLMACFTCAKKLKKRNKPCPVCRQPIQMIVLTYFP
Description: MV-4-11 cells were treated with Cpd. A, Cpd. B, Cpd. No. 15, and Cpd. No. 22 for 2 hours, then harvested and lysed. The cell lysates were subjected to western blotting analysis. […] No. 15 and Cpd. No. 22 as compared to Cpd. A, indicating MDM2 degradation.

MDM2 [5] = biological target: T1, MDM2; assay: as above; design: endogenous in cells; host or cells: RS4;11; conditions: RS4; for p53 activation: 11 cell line; for protein level of MDM2 (MDM2 degradation): 11 cells, 2 hours, compared to Cpd. A
Description: RS4; 11 cells were treated with Cpd. A, Cpd. B, Cpd. No. 15, and Cpd. No. 22 for 2 hours, then harvested and lysed. The cell lysates were subjected to western blotting analysis. […] No. 15 and Cpd. No. 22 as compared to Cpd. A, indicating MDM2 degradation. The structure of Cpd.

MDM2 [6] = biological target: T1, MDM2; assay: MDM2 degradation with or without proteasome inhibitor MG-132, western blotting; design: endogenous in cells; host or cells: RS4;11; conditions: FIG. 6
Description: RS4; 11 cells were pre-incubated with the proteasome inhibitor MG-132 (20 μM) or without any pre-incubation for 2 hours. Next, the cells were treated with Cpd. A (0.3 μM), Cpd. No. 14 (0.03 μM), Cpd. No. 15 (0.01 μM), and Cpd. No. 22 (0.01 μM) for 2 hours, then harvested and lysed. The cell lysates were subject to western blotting analysis.

MDM2 [7] = biological target: T1, MDM2; assay: MDM2 degradation and p53 activation after pre-incubation with Cpd. C, Western blot; design: endogenous in cells; host or cells: RS4;11; conditions: for MDM2 degradation, dependence on cereblon (CRBN): FIG. 7; for MDM2 degradation, competition by Cpd. C / p53 activation, competition by Cpd. C: RS4, 11 cells, pre-incubated with 30 μM Cpd. C for 2 hours
Description: RS4; 11 cells were pre-incubated with 30 μM Cpd. C to compete for the binding of phthalimide to CRBN, or DMSO, for 2 hours before adding Cpd. A, Cpd. No. 14, Cpd. No. 15, and Cpd. No. 22. In the Western blot RS4; 11 cells were then co-treated with the indicated compounds at the indicated concentrations after pre-incubation. […] No. 14, Cpd. No. 15, and Cpd.

[8] = Homo sapiens, 96 h, without Cpd. C

Compound	IC50 (MV4-11 cell line)	IC50 (RS4; 11 cell line)	mRNA levels of p21 [1]	mRNA levels of PUMA [1]	mRNA levels of BAX [1]	activation of p53 downstream target genes (mRNA levels of p21, PUMA, BAX) [1]	HillSlope (RS4; 11 cells; + 10 uM Cpd. C)	IC50 (RS4; 11 cells; + 10 uM Cpd. C)	LogIC50 (RS4; 11 cells; + 10 uM Cpd. C)	HillSlope (RS4; 11 cells; + 20 uM Cpd. C)	IC50 (RS4; 11 cells; + 20 uM Cpd. C)	LogIC50 (RS4; 11 cells; + 20 uM Cpd. C)	HillSlope (RS4; 11 cells; + 30 uM Cpd. C)	IC50 (RS4; 11 cells; + 30 uM Cpd. C)	LogIC50 (RS4; 11 cells; + 30 uM Cpd. C)	HillSlope (RS4; 11 cells; without Cpd. C)	LogIC50 (RS4; 11 cells; without Cpd. C)	IC50 (RS4; 11 cells; [8])	shift of the dose response curves (RS4; 11 cells)	IC50 [2]	further results
O=C1CCC(N2C(=O)c3cccc(NCCOCCOCCOCCNC(=O)c4ccc(NC(=O)[C@@H]5NC6(CCCCC6)[C@@]6(C(=O)Nc7cc(Cl)ccc76)[C@H]5c5cccc(Cl)c5F)cc4)c3C2=O)C(=O)N1 (stereo partly drawn) [Cpd. No. 15, (3′R,4'S,5′R)-6″-chloro-4′-(3-chloro-2-fluorophenyl)-N-(4-((2-(2-(2-(2-((2-(2,6-dioxopiperidin-3-yl)-1,3-dioxoisoindolin-4-yl)amino)ethoxy)ethoxy)ethoxy)ethyl)carbamoyl)phenyl)-2″-oxodispiro[cyclohexane-1,2′-pyrrolidine-3′,3″-indoline]-5′-carboxamide]	2 nM	4.4 nM	activate	activate	activate	Significant activation	−1.654	44 nM	−1.356	−1.540	68.2 nM	−1.167	−1.416	62.4 nM	−1.205	−1.839	−2.312	4.87 nM	Significant rightward shifts	110 nM	HiliSlope [2]: −0.8905; LogIC50 [2]: −0.9565; IC50 [3]: 7.47 nM; HiliSlope [3]: −1.626; LogIC50 [3]: −2.127; p53 activation (MDM2 [4]): p53 activation; protein level of MDM2 (MDM2 degradation) (MDM2 [4]): induce MDM2 degradation; also recorded: significantly decreased; p53 activation (MDM2 [5]): p53 activation; protein level of MDM2 (MDM2 degradation) (MDM2 [5]): induce MDM2 degradation; also recorded: significantly decreased; MDM2 degradation, dependence on proteasome (MDM2 [6]): proteasome-dependent; MDM2 degradation, dependence on cereblon (CRBN) (MDM2 [7]): cereblon (CRBN)-dependent; MDM2 degradation, competition by Cpd. C (MDM2 [7]): significantly competed by Cpd. C; p53 activation, competition by Cpd. C (MDM2 [7]): significantly competed by Cpd. C
O=C1CCC(N2Cc3c(NCCOCCOCCOCCNC(=O)c4ccc(NC(=O)[C@@H]5NC6(CCCCC6)[C@@]6(C(=O)Nc7cc(Cl)ccc76)[C@H]5c5cccc(Cl)c5F)cc4)cccc3C2=O)C(=O)N1 (stereo partly drawn) [Cpd. No. 22, (3′R,4'S,5′R)-6″-chloro-4′-(3-chloro-2-fluorophenyl)-N-(4-((2-(2-(2-(2-((2-(2,6-dioxopiperidin-3-yl)-1-oxoisoindolin-4-yl)amino)ethoxy)ethoxy)ethoxy)ethyl)carbamoyl)phenyl)-2″-oxodispiro[cyclohexane-1,2′-pyrrolidine-3′,3″-indoline]-5′-carboxamide]	2.7 nM	4.7 nM	activate	activate	activate	Significant activation	−1.701	61.7 nM	−1.209	−1.530	89.6 nM	−1.048	−1.341	83.2 nM	−1.080	−1.803	−2.242	5.73 nM	Significant rightward shifts	137 nM	HiliSlope [2]: −0.8833; LogIC50 [2]: −0.8628; IC50 [3]: 9.45 nM; HiliSlope [3]: −1.567; LogIC50 [3]: −2.025; p53 activation (MDM2 [4]): p53 activation; protein level of MDM2 (MDM2 degradation) (MDM2 [4]): induce MDM2 degradation; also recorded: significantly decreased; p53 activation (MDM2 [5]): p53 activation; protein level of MDM2 (MDM2 degradation) (MDM2 [5]): induce MDM2 degradation; also recorded: significantly decreased; MDM2 degradation, dependence on proteasome (MDM2 [6]): proteasome-dependent; MDM2 degradation, dependence on cereblon (CRBN) (MDM2 [7]): cereblon (CRBN)-dependent; MDM2 degradation, competition by Cpd. C (MDM2 [7]): significantly competed by Cpd. C; p53 activation, competition by Cpd. C (MDM2 [7]): significantly competed by Cpd. C
